System: HUV-EC-C cells (human umbilical vein endothelial cells)
Assay: HUV-EC-C assay, VEGF-stimulated (VEGF HUVEC)
Format: cell-based
Protocol: The following protocol may also be used to measure a compound's activity against PDGF-R, FGF-R, VEGF, aFGF or Flk-1/KDR, all of which are naturally expressed by HUV-EC cells.
1. Wash and trypsinize HUV-EC-C cells (human umbilical vein endothelial cells, (American Type Culture Collection; catalogue no. 1730 CRL). Wash with Dulbecco's phosphate-buffered saline (D-PBS; obtained from Gibco BRL; catalogue no. 14190-029) 2 times at about 1 ml/10 cm^2 of tissue culture flask. Trypsinize with 0.05% trypsin-EDTA in non-enzymatic cell dissociation solution (Sigma Chemical Company; catalogue no. C-1544). The 0.05% trypsin is made by diluting 0.25% trypsin/l mM EDTA (Gibco; catalogue no. 25200-049) in the cell dissociation solution. Trypsinize with about 1 ml/25-30 cm^2 of tissue culture flask for about 5 minutes at 37° C. After cells have detached from the flask, add an equal volume of assay medium and transfer to a 50 ml sterile centrifuge tube (Fisher Scientific; catalogue no. 05-539-6).
2. Wash the cells with about 35 ml assay medium in the 50 ml sterile centrifuge tube by adding the assay medium, centrifuge for 10 minutes at approximately 200×g, aspirate the supernatant, and resuspend with 35 ml D-PBS. Repeat the wash two more times with D-PBS, resuspend the cells in about 1 ml assay medium/15 cm^2 of tissue culture flask. […]

Structure (SMILES) | IC50
O=C1Nc2ccccc2/C1=C1\CCc2ccccc21 [Compound 10, 3-Indan-1-ylidene-1,3-dihydroindol-2-one] | 330 nM
COc1ccc2c(c1)C(CC(=O)O)C/C2=C1/C(=O)Nc2ccccc21 (centres unmarked) [Compound 11, [6-Methoxy-3-(2-oxo-1,2-dihydroindol-3-ylidene)-indan-1-yl]acetic Acid] | 50 nM

Reference: patent publication US6642251B1, “Geometrically restricted 2-indolinone derivatives as modulators of protein kinase activity” (Sugen, Inc., priority 1998, dated 2003)
